Measurements reported in paper PMC10167657, “Reaction Mechanism of Glycoside Hydrolase Family 116 Utilizes Perpendicular Protonation” (ACS Catalysis, 2023).

Biological target: T1, TxGH116 β-glucosidase (Thermoanaerobacterium xylanolyticum, UniProt F6BL85, D593N)
T1 construct: gene Thexy_2211; pET30a/TxGH116Δ1-18 (residues 1-18 removed), E. coli BL21(DE3), IMAC, tag cut with enterokinase, Superdex 200
Test: X-ray crystal structure, soaked crystal
Type: binding
Conditions: pH 5.5

[1] = 200 mM soak, subsites –1 and +1 (Michaelis complex)

T1 sequence (F6BL85 entry or part of it D593N): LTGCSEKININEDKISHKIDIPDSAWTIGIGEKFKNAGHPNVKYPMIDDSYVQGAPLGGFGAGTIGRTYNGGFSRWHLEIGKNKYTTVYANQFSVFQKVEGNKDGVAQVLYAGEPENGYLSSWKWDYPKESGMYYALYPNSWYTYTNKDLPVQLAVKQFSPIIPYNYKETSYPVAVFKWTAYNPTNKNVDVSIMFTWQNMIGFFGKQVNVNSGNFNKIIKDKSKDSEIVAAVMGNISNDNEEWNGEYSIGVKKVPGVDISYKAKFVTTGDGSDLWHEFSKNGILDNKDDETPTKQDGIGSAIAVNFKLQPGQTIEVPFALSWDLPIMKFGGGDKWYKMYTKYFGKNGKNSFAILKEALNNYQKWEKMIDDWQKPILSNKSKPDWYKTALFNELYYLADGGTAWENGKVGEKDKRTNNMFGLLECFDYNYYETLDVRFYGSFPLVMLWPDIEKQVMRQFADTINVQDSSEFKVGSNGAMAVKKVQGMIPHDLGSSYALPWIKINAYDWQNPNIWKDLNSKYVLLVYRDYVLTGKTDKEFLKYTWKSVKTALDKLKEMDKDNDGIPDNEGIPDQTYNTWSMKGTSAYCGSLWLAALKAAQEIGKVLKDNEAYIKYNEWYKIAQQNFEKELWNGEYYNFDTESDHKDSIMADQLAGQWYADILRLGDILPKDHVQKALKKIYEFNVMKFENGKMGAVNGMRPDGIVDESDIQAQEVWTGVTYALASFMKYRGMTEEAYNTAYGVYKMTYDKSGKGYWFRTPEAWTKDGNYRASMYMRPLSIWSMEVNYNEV

SMILES	X-ray crystal structure, soaked crystal (covalent 2-deoxy-2-fluoroglucosyl-enzyme at nucleophile E441, 10 mM soak)	X-ray crystal structure, soaked crystal [1]
O=[N+]([O-])c1ccc(O[C@@H]2O[C@H](CO)[C@@H](O)[C@H](O)[C@H]2F)c([N+](=O)[O-])c1 [2,4-dinitrophenyl 2-deoxy-2-fluroglucopyranoside]	The covalent complex of TxGH116 D593N with G2F exhibits an overall structure	
OC[C@H]1O[C@@H](O[C@H]2[C@H](O)[C@@H](O)C(O)O[C@@H]2CO)[C@H](O)[C@@H](O)[C@@H]1O (stereo partly drawn) [cellobiose]		The structure of TxGH116 D593N with cellobiose shows the same interactions
OC[C@H]1O[C@@H](O[C@H]2[C@H](O)[C@@H](CO)OC(O)[C@@H]2O)[C@H](O)[C@@H](O)[C@@H]1O (stereo partly drawn) [laminaribiose]		The TxGH116 D593N variant with laminaribiose (Figure 2B) displays the glycosidic oxygen
